# Measured values from PubChem BioAssay AID1259407 (Chemical Carcinogenesis Research Information System (CCRIS), 2018).
# Active and inactive are the calls of the source. No rule for the calls is given here.
# System: CCRIS mutagenicity, Ames/micronucleus/aberration tests
# Test: CCRIS mutagenicity studies
# [1] = Test System: AMES SALMONELLA TYPHIMURIUM, Strain/Indicator: TA100, Metabolic Activation: NONE, Method: STANDARD PLATE
# [2] = Test System: AMES SALMONELLA TYPHIMURIUM, Strain/Indicator: TA1537, Metabolic Activation: NONE, Method: STANDARD PLATE
# [3] = Test System: AMES SALMONELLA TYPHIMURIUM, Strain/Indicator: TA1537, Metabolic Activation: NONE, Method: PREINCUBATION
structure (smiles),measurement,setting,value
Cc1c(N)c(=O)n(-c2ccccc2)n1C,mutagenic call,"Test System: AMES SALMONELLA TYPHIMURIUM, Strain/Indicator: TA97, Metabolic Activation: NONE, Method: STANDARD PLATE",active; positive
same,mutagenic call,"Test System: AMES SALMONELLA TYPHIMURIUM, Strain/Indicator: TA97, Metabolic Activation: RAT, LIVER, S-9, AROCLOR 1254, Method: STANDARD PLATE",active; positive
same,mutagenic call,"Test System: AMES SALMONELLA TYPHIMURIUM, Strain/Indicator: TA97A, Metabolic Activation: RAT, LIVER, S-9, AROCLOR 1254, Method: STANDARD PLATE",active; positive
same,mutagenic call,"Test System: AMES SALMONELLA TYPHIMURIUM, Strain/Indicator: TA98, Metabolic Activation: NONE, Method: STANDARD PLATE",inactive; negative
same,mutagenic call,"Test System: AMES SALMONELLA TYPHIMURIUM, Strain/Indicator: TA98, Metabolic Activation: RAT, LIVER, S-9, AROCLOR 1254, Method: STANDARD PLATE",inactive; negative
same,mutagenic call,[1],inactive; negative
same,mutagenic call,"Test System: AMES SALMONELLA TYPHIMURIUM, Strain/Indicator: TA100, Metabolic Activation: RAT, LIVER, S-9, AROCLOR 1254, Method: STANDARD PLATE",inactive; negative
same,mutagenic call,"Test System: AMES SALMONELLA TYPHIMURIUM, Strain/Indicator: TA102, Metabolic Activation: NONE, Method: STANDARD PLATE",inactive; negative
same,mutagenic call,"Test System: AMES SALMONELLA TYPHIMURIUM, Strain/Indicator: TA102, Metabolic Activation: RAT, LIVER, S-9, AROCLOR 1254, Method: STANDARD PLATE",inactive; negative
same,mutagenic call,"Test System: AMES SALMONELLA TYPHIMURIUM, Strain/Indicator: TA104, Metabolic Activation: NONE, Method: STANDARD PLATE",inactive; negative
same,mutagenic call,"Test System: AMES SALMONELLA TYPHIMURIUM, Strain/Indicator: TA104, Metabolic Activation: RAT, LIVER, S-9, AROCLOR 1254, Method: STANDARD PLATE",inactive; negative
same,mutagenic call,[2],inactive; negative
same,mutagenic call,"Test System: AMES SALMONELLA TYPHIMURIUM, Strain/Indicator: TA1537, Metabolic Activation: RAT, LIVER, S-9, AROCLOR 1254, Method: STANDARD PLATE",inactive; negative
O=CC(Cl)Cl,mutagenic call,"Test System: CHINESE HAMSTER V-79, Strain/Indicator: V-79/OUABAIN, Metabolic Activation: NONE",inactive; negative
same,mutagenic call,"Test System: UDS HUMAN CELLS, Strain/Indicator: EUE LINE/THY INCORP, Metabolic Activation: NONE, Method: AUTORADIOGRAPHY",inactive; negative
CN(C)CCNC(=O)c1cccc2[nH]c(-c3ccccc3)nc12,mutagenic call,[2],active; positive
CC(=O)ON(OCc1ccc(C(C)(C)C)cc1)C(=O)c1ccccc1,mutagenic call,[1],active; positive
C#CCNC(=NCCSCc1nc[nH]c1C)NC#N,mutagenic call,"Test System: AMES SALMONELLA TYPHIMURIUM, Strain/Indicator: TA98, Metabolic Activation: NONE, Method: PREINCUBATION",inactive; negative
same,mutagenic call,"Test System: AMES SALMONELLA TYPHIMURIUM, Strain/Indicator: TA98, Metabolic Activation: RAT, LIVER, S-9, SODIUM PHENOBARBITAL AND BETA-NAPHTHOFLAVONE, Method: PREINCUBATION",inactive; negative
same,mutagenic call,"Test System: AMES SALMONELLA TYPHIMURIUM, Strain/Indicator: TA100, Metabolic Activation: NONE, Method: PREINCUBATION",inactive; negative
same,mutagenic call,"Test System: AMES SALMONELLA TYPHIMURIUM, Strain/Indicator: TA100, Metabolic Activation: RAT, LIVER, S-9, SODIUM PHENOBARBITAL AND BETA-NAPHTHOFLAVONE, Method: PREINCUBATION",inactive; negative
same,mutagenic call,"Test System: AMES SALMONELLA TYPHIMURIUM, Strain/Indicator: TA1535, Metabolic Activation: NONE, Method: PREINCUBATION",inactive; negative
same,mutagenic call,"Test System: AMES SALMONELLA TYPHIMURIUM, Strain/Indicator: TA1535, Metabolic Activation: RAT, LIVER, S-9, SODIUM PHENOBARBITAL AND BETA-NAPHTHOFLAVONE, Method: PREINCUBATION",inactive; negative
same,mutagenic call,[3],inactive; negative
same,mutagenic call,"Test System: AMES SALMONELLA TYPHIMURIUM, Strain/Indicator: TA1537, Metabolic Activation: RAT, LIVER, S-9, SODIUM PHENOBARBITAL AND BETA-NAPHTHOFLAVONE, Method: PREINCUBATION",inactive; negative
same,mutagenic call,"Test System: AMES SALMONELLA TYPHIMURIUM, Strain/Indicator: TA1538, Metabolic Activation: NONE, Method: PREINCUBATION",inactive; negative
same,mutagenic call,"Test System: AMES SALMONELLA TYPHIMURIUM, Strain/Indicator: TA1538, Metabolic Activation: RAT, LIVER, S-9, SODIUM PHENOBARBITAL AND BETA-NAPHTHOFLAVONE, Method: PREINCUBATION",inactive; negative
same,mutagenic call,"Test System: CHINESE HAMSTER V-79, Strain/Indicator: V-79/6-THIOGUANINE, Metabolic Activation: NONE, Method: STANDARD PLATE",inactive; negative
same,mutagenic call,"Test System: CHINESE HAMSTER V-79, Strain/Indicator: V-79/6-THIOGUANINE, Metabolic Activation: RAT, LIVER, S-9, SODIUM PHENOBARBITAL AND BETA-NAPHTHOFLAVONE, Method: STANDARD PLATE",inactive; negative
same,mutagenic call,"Test System: CHINESE HAMSTER V-79, Strain/Indicator: V-79/OUABAIN, Metabolic Activation: NONE, Method: STANDARD PLATE",inactive; negative
same,mutagenic call,"Test System: CHINESE HAMSTER V-79, Strain/Indicator: V-79/OUABAIN, Metabolic Activation: RAT, LIVER, S-9, SODIUM PHENOBARBITAL AND BETA-NAPHTHOFLAVONE, Method: STANDARD PLATE",inactive; negative
same,mutagenic call,"Test System: E. COLI, Strain/Indicator: WP2 (PKM101), Metabolic Activation: NONE, Method: PREINCUBATION",inactive; negative
same,mutagenic call,"Test System: E. COLI, Strain/Indicator: WP2 (PKM101), Metabolic Activation: RAT, LIVER, S-9, SODIUM PHENOBARBITAL AND BETA-NAPHTHOFLAVONE, Method: PREINCUBATION",inactive; negative
same,mutagenic call,"Test System: E. COLI, Strain/Indicator: WP2, Metabolic Activation: NONE, Method: PREINCUBATION",inactive; negative
same,mutagenic call,"Test System: E. COLI, Strain/Indicator: WP2, Metabolic Activation: RAT, LIVER, S-9, SODIUM PHENOBARBITAL AND BETA-NAPHTHOFLAVONE, Method: PREINCUBATION",inactive; negative
same,mutagenic call,"Test System: E. COLI, Strain/Indicator: WP2 UVRA (PKM101), Metabolic Activation: NONE, Method: PREINCUBATION",inactive; negative
same,mutagenic call,"Test System: E. COLI, Strain/Indicator: WP2 UVRA (PKM101), Metabolic Activation: RAT, LIVER, S-9, SODIUM PHENOBARBITAL AND BETA-NAPHTHOFLAVONE, Method: PREINCUBATION",inactive; negative
same,mutagenic call,"Test System: E. COLI, Strain/Indicator: WP2 UVRA, Metabolic Activation: NONE, Method: PREINCUBATION",inactive; negative
same,mutagenic call,"Test System: E. COLI, Strain/Indicator: WP2 UVRA, Metabolic Activation: RAT, LIVER, S-9, SODIUM PHENOBARBITAL AND BETA-NAPHTHOFLAVONE, Method: PREINCUBATION",inactive; negative
CC(C)CCC[C@@H](C)[C@H]1CC[C@H]2[C@@H]3[C@H](OO)C=C4C[C@@H](O)CC[C@]4(C)[C@H]3CC[C@]12C,mutagenic call,[3],active; positive
CC1(C)C(C=C(Cl)Cl)C1C(=O)OC(C#N)c1ccc(F)c(Oc2ccccc2)c1 (stereo unspecified),mutagenic call,"End Point: In vitro chromosomal aberrations, Test System: Human lymphocytes, Metabolic Activation: Male Sprague-Dawley rat, liver, S-9, Aroclor 1254",inactive; negative
same,mutagenic call,"End Point: In vitro chromosomal aberrations, Test System: Human lymphocytes, Metabolic Activation: None",inactive; negative
same,mutagenic call,"End Point: In vitro chromosomal aberrations, Test System: Human lymphocytes, Metabolic Activation: S-9 (No details given by DPR evaluator)",inactive; negative
same,mutagenic call,"End Point: In vivo micronucleus, Test System: Bone marrow erythrocytes, Strain/Indicator: Bor:NMRI (SPF Han)/ Female, Species: Mouse, Route: Oral",inactive; negative (no significant effect on frequency of micronucleated polychromatic ery
same,mutagenic call,"End Point: In vivo micronucleus, Test System: Bone marrow erythrocytes, Strain/Indicator: Bor:NMRI (SPF Han)/ Male, Species: Mouse, Route: Oral",inactive; negative (no significant effect on frequency of micronucleated polychromatic ery
same,mutagenic call,"Test System: Ames Salmonella typhimurium, Strain/Indicator: TA98, Metabolic Activation: None, Method: Plate incorporation",inactive; negative
same,mutagenic call,"Test System: Ames Salmonella typhimurium, Strain/Indicator: TA98, Metabolic Activation: S-9 (Additional details not given by DPR evaluator), Method: Plate incorporation",inactive; negative
same,mutagenic call,"Test System: Ames Salmonella typhimurium, Strain/Indicator: TA100, Metabolic Activation: None, Method: Plate incorporation",inactive; negative
same,mutagenic call,"Test System: Ames Salmonella typhimurium, Strain/Indicator: TA100, Metabolic Activation: S-9 (Additional details not given by DPR evaluator), Method: Plate incorporation",inactive; negative
same,mutagenic call,"Test System: Ames Salmonella typhimurium, Strain/Indicator: TA1535, Metabolic Activation: None, Method: Plate incorporation",inactive; negative
same,mutagenic call,"Test System: Ames Salmonella typhimurium, Strain/Indicator: TA1535, Metabolic Activation: S-9 (Additional details not given by DPR evaluator), Method: Plate incorporation",inactive; negative
same,mutagenic call,"Test System: Ames Salmonella typhimurium, Strain/Indicator: TA1537, Metabolic Activation: None, Method: Plate incorporation",inactive; negative
same,mutagenic call,"Test System: Ames Salmonella typhimurium, Strain/Indicator: TA1537, Metabolic Activation: S-9 (Additional details not given by DPR evaluator), Method: Plate incorporation",inactive; negative
same,mutagenic call,"Test System: CHO-HGPRT, Strain/Indicator: CHO-Ki-BH4 cells, Metabolic Activation: None, Method: Forward mutation assay",inactive; negative
same,mutagenic call,"Test System: CHO-HGPRT, Strain/Indicator: CHO-Ki-BH4 cells, Metabolic Activation: S-9 (No additional details presented by DPR evaluator), Method: Forward mutation assay",inactive; negative
same,mutagenic call,"Test System: UDS Rat hepatocytes, Strain/Indicator: Thymidine incorporation, Metabolic Activation: None, Method: Autoradiography",inactive; negative
